Where two headings read alike, the source gives them in different places.
Experiments:
[1] = Solubility of copanlisib dihydrochloride, flask method, HPLC; type: physicochemical; conditions: for Descriptive term: according to Ph. Eur./USP; for solubility at 19 h: 25 °C, thermodynamic from solid
Description: The suspension was centrifuged before HPLC analysis.

[2] = Hydrolytic (chemical) stability in aqueous solution, HPLC; type: physicochemical
Procedure: The different aqueous solutions (0.05 % copanlisib; after addition of 50 % 2-propanol, [buffer solution filtered with 0.5µm membrane filter]) were stored at 25°C and 70°C for 24 h and one week. An analytical HPLC-method has been developed to determine assay and organic impurities of copanlisib as well as degradation products. Table 2 : Results on hydrolytic stability of copanlisib

[3] = test system: indolent B-cell non-Hodgkin lymphoma
Procedure: Methods: Patients with indolent B-cell non-Hodgkin lymphoma (4 subtypes: follicular (FL), marginal zone (MZL), small lymphocytic (SLL) and lymphoplasmacytoid/Waldenström macroglobulinemia (LPL-WM)) and relapsed after, or refractory to, ≥2 prior lines of treatment were eligible. […] Copanlisib (60 mg, I.V.) was intermittently administered on days 1, 8 and 15 of a 28-day cycle.

[4] = full analysis set, 142 patients

With `COc1c(OCCCN2CCOCC2)ccc2c1N=C(NC(=O)c1cnc(N)nc1)N1CCN=C21.Cl.Cl` [copanlisib dihydrochloride, 2-amino-N-[7-methoxy-8-(3-morpholin-4-ylpropoxy)-2,3-dihydroimidazo[1,2-c]quinazolin-5-yl]pyrimidine-5-carboxamide dihydrochloride] the Descriptive term ([1]; 0.1 M Hydrochloric acid) was “freely soluble”, the solubility at 19 h ([1]; 0.1 M hydrochloric acid, simulated gastric fluid) was 190 mg/mL and the solubility at 19 h ([1]; aqueous buffer, Buffer (citrate) pH 3) was 250 mg/mL. It also gave a solubility at 19 h ([1]; aqueous buffer, Buffer (citrate) pH 4) of 25 mg/mL, a solubility at 19 h ([1]; aqueous buffer, Buffer (citrate) pH 5) of 0.62 mg/mL and a solubility at 19 h ([1]; aqueous buffer, Buffer (phosphate) pH 1) of 510 mg/mL. For the same molecule, the solubility at 19 h ([1]; aqueous buffer, Buffer (phosphate) pH 2) was 250 mg/mL, the solubility at 19 h ([1]; aqueous buffer, Buffer (phosphate) pH 6) was 0.001 mg/mL and the Descriptive term ([1]; Buffer (citrate) pH 3) was “freely soluble”. The Descriptive term ([1]; Buffer (citrate) pH 4) was “soluble”, the Descriptive term ([1]; Buffer (citrate) pH 5) was “very slightly soluble” and the Descriptive term ([1]; Buffer (phosphate) pH 1) was “freely soluble”. For the same molecule, the Descriptive term ([1]; Buffer (phosphate) pH 2) was “freely soluble”, the Descriptive term ([1]; Buffer (phosphate) pH 6) was “practically insoluble” and the Descriptive term ([1]; Buffer (phosphate) pH 7) was “practically insoluble”. The Descriptive term ([1]; Water) was “freely soluble” and the solubility at 19 h ([1]; water) was 230 mg/mL.
With `COc1c(OCCCN2CCOCC2)ccc2c1N=C(NC(=O)c1cnc(N)nc1)N1CCN=C21` [copanlisib, 2-amino-N-[7-methoxy-8-(3-morpholin-4-ylpropoxy)-2,3-dihydroimidazo[1,2-c]quinazolin-5-yl]pyrimidine-5-carboxamide] the Appearance ([2]; 0.1M HCl, 1 week, 25°C) was “slightly colored solution”, the Appearance ([2]; 0.1M HCl, 1 week, 70°C) was “slightly colored solution” and the Appearance ([2]; 0.1M HCl, 24 h, 25°C) was “slightly colored solution”. For the same molecule, the Appearance ([2]; 0.1M HCl, 24h, 70°C) was “slightly colored solution”, the Appearance ([2]; 0.1M HCl, Initial) was “slightly colored solution” and the Appearance ([2]; 0.1 M NaOH, 1week, 25°C) was “slightly colored solution”. The Appearance ([2]; 0.1 M NaOH, 1week, 70°C) was “slightly colored solution”, the Appearance ([2]; 0.1 M NaOH, 24 h, 25°C) was “slightly colored solution” and the Appearance ([2]; 0.1 M NaOH, 24h, 70°C) was “slightly colored solution”. The Appearance ([2]; 0.1 M NaOH, Initial) was “slightly colored solution”, the Appearance ([2]; Buffer pH 7, 1 week, 25°C) was “slightly colored turbid solution” and the Appearance ([2]; Buffer pH 7, 1 week, 70°C) was “slightly colored solution”. For the same molecule, the Appearance ([2]; Buffer pH 7, 24 h, 25°C) was “slightly colored turbid solution”, the Appearance ([2]; Buffer pH 7, 24 h, 70°C) was “slightly colored solution” and the Appearance ([2]; Buffer pH 7, Initial) was “slightly colored turbid solution”. The Appearance ([2]; Water, 1 week, 25°C) was “slightly colored solution”, the Appearance ([2]; Water, 1 week, 70°C) was “slightly colored solution” and the Appearance ([2]; Water, 24 h, 25°C) was “slightly colored solution”. The Appearance ([2]; Water, 24h, 70°C) was “slightly colored solution”, the Appearance ([2]; Water, Initial) was “slightly colored solution” and the CR ([3]; FL subset) was 14.4%. For the same molecule, the ORR ([3]; FL subset) was 58.7%, the PR ([3]; FL subset) was 44.2% and the “estimated Kaplan-Meier (KM) median duration of response” value ([3]; FL subset (range 0-687)) was 370 days. For the same molecule, the CR ([3]; MZL subset) was 8.7%, the ORR ([3]; MZL subset) was 69.6% and the PR ([3]; MZL subset) was 60.9%. For the same molecule, the “AEs of interest: colitis” value ([3]; all grade) was 0.7%, the “AEs of interest: diarrhea” value ([3]; all grade) was 18% and the “AEs of interest: lung infection” value ([3]; all grade) was 14%. For the same molecule, the “AEs of interest: neutropenia” value ([3]; all grade) was 25%, the “AEs of interest: pneumonitis” value ([3]; all grade) was 7% and the “treatment-related adverse events: hypertension” value ([3]; all grade) was 29%. For the same molecule, the “treatment-related adverse events: transient hyperglycemia” value ([3]; all grade, 60 mg I.V. days 1, 8, 15 of 28-day cycle) was 49%, the “Laboratory toxicities: alanine aminotransferase” value ([3]; all-grade) was 23% and the “Laboratory toxicities: aspartate aminotransferase” value ([3]; all-grade) was 28%. The Median overall survival ([3]; at the time of primary analysis) was “had not yet been reached”, the “complete response (CR)” value ([3]; full analysis set) was 12.0% and the “estimated Kaplan-Meier (KM) median duration of response” value ([3]; full analysis set (range 0-687)) was 687 days. The colonic perforations [3, 4] was “No colonic perforations occurred”, the deaths [3, 4] was 6 and the non-fatal opportunistic infections [3, 4] was “two”. For the same molecule, the “AEs of interest: colitis” value ([3]; human, in vivo) was 0.7%, the “AEs of interest: diarrhea” value ([3]; human, in vivo) was 4% and the “AEs of interest: lung infection” value ([3]; human, in vivo) was 11%. The “AEs of interest: neutropenia” value ([3]; human, in vivo) was 19%, the “AEs of interest: pneumonitis” value ([3]; human, in vivo) was 1.4% and the “Laboratory toxicities: alanine aminotransferase” value ([3]; human, in vivo) was 19%. For the same molecule, the “Laboratory toxicities: aspartate aminotransferase” value ([3]; human, in vivo) was 25%, the “treatment-related adverse events: hypertension” value ([3]; human, in vivo) was 23% and the “treatment-related adverse events: transient hyperglycemia” value ([3]; human, in vivo) was 40%. For the same molecule, the “deaths attributed to copanlisib” value ([3]; lung infection, respiratory failure, and a thromboembolic event) was 3 and the “KM-estimate of median PFS” value ([3]; range 0-736) was 340 days.
